Assay [1] has as its system microtubule network of MCF7 cells. Kind of assay: Immunofluorescence of microtubule network, MCF7. Type of assay: cell-based, human. To be noted: MCF7, 175 nM, 72 h, confocal microscopy. On the procedure:
(§1) MCF7, HeLa, and HT-29 cells were grown on round glass coverslips coated with poly-L-lysine (12 mm diameter). To reach appropriate cell confluence, coverslips were manipulated in 6-well plates (3 coverslips/well) seeding 3 ml/well of cells in the exponential growth phase at 2 × 10^4 cells/mL. After 24 h incubation, cells were treated with compound 25 at 175 nM and incubated for 72 h. Cells were washed with PBS, fixed with 4% formaldehyde in PBS for 10 min, permeabilized with 0.5% Triton X-100 (Boehringer Mannheim, Ingelheimam Rhein, Germany) in PBS for 10 min, and blocked with 10% BSA in PBS for 30 min. Then, coverslips were incubated with anti-α-tubulin mouse monoclonal antibody (diluted 1:200 in 3% BSA/PBS) (Sigma-Aldrich Co.) and anti-SQSTM1/p62 rabbit monoclonal antibody (diluted 1:100 in 3% BSA/PBS) (Abcam) for 1 h 30 min. After PBS washing, coverslips were incubated with fluorescent secondary antibodies Alexa Fluor 488 goat anti-mouse IgG and Alexa Fluor 594 anti-rabbit (both diluted 1:400 in 1% BSA/PBS) (Molecular Probes, Invitrogen, Thermo Fischer Scientific) for 1 h in darkness. […] Cells were analysed by confocal microscopy using a LEICA SP5 microscope DMI-6000V model coupled to a LEICA LAS AF software computer.

The test system of assay [2] is HeLa cells. Kind of assay: Apoptotic cell death quantification (Annexin V-FITC/PI), HeLa. In kind it is cell-based, human. To be noted: 72 h. On the procedure:
MCF7, HeLa, and HT-29 apoptotic cells were quantified using an Annexin V-FITC/PI apoptosis detection kit (Immunostep, Salamanca, Spain) according to the manufacturer’s guidelines. 1.5 ml/well of cells in the exponential growth phase at 2 × 10^4 cells/mL were seeded onto 12-well plates and left to attach overnight. After 24 h incubation, cells were treated with compound 25 at 87.5 or 175 nM. 72 h post-treatment, attached and floating cells of treated and untreated wells were collected, centrifuged, resuspended in the Annexin V binding buffer, and stained with Annexin V-FITC/PI. Cells were then incubated in darkness at room temperature for 15 min and a total of 30,000 cells were acquired and analysed using the BD Accuri™ C6 Plus Flow Cytometer and Software (version 1.0.264.21, BD Biosciences, San José, CA, USA), respectively. Compounds were dissolved in DMSO and the final solvent concentrations never exceeded 0.5% (v/v). Control wells included cells with 0.5% (v/v) DMSO.

Assay [3] concerns the target T1, microtubular protein isolated from calf brain (Bos taurus, UniProt P81947+Q6B856).
T1 construct: isolated from calf brain according to the modified Shelanski method; from tissue; host or cells: calf brain
The assay is described as follows: Inhibition of tubulin polymerisation (turbidity). Type of assay: biochemical.

Assay [4] relates to HeLa cells. Kind of assay: Cell cycle analysis (PI, flow cytometry), HeLa. Type of assay: cell-based, human. On the procedure: MCF7, HeLa, and HT-29 cell cycle analyses were performed by quantifying the DNA content by flow cytometry. Cells in the exponential growth phase at 2 × 10^4 cells/mL were seeded in 24-well plates (1 ml/well). After 24 h incubation, cells were treated with compound 25 at 87.5 or 175 nM. After 24, 48, and 72 h treatments, live and dead cells were collected and fixed in ice-cold ethanol:PBS (7:3) and stored at 4 °C for later use. Cells were rehydrated with phosphate-buffered saline (PBS), treated with 100 µg/mL RNase A (Sigma-Aldrich Co., St. Louis, MO, USA), and stained overnight in darkness at room temperature with 50 µg/mL propidium iodide (PI) (Sigma-Aldrich Co.). Cell cycle profiles were then analysed by flow cytometry using BD Accuri™ C6 Plus Flow Cytometer (BD Biosciences, San José, CA, USA). Data were analysed with BD Accuri™ C6 Software (version 1.0.264.21, BD Biosciences, San José, CA, USA) and compared to control cells treated with 0.5% (v/v) DMSO. Compounds were dissolved in DMSO and the final solvent concentrations never exceeded 0.5% (v/v).
On the technique in general: A flow cytometer gives signals particle by particle.

Assay [5] has as its system microtubule network of HT-29 cells. The assay is described as follows: Immunofluorescence of microtubule network, HT-29. To be noted: HT-29, 175 nM, 72 h, confocal microscopy. In kind it is cell-based, human. On the procedure: as §1

T1 sequence (Q6B856 whole entry): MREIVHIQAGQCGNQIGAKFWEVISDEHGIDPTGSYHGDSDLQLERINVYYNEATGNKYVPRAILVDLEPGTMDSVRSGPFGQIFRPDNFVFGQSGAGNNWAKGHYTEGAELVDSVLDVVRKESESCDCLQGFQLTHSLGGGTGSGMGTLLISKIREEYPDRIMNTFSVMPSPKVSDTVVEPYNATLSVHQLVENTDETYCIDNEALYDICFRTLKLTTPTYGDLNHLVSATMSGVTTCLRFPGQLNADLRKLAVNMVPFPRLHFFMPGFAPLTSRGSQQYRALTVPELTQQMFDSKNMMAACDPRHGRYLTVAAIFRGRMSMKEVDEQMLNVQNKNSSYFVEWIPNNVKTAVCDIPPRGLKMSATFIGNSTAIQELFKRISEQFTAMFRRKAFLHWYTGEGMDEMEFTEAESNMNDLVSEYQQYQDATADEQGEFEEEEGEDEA
T1 sequence (P81947 whole entry): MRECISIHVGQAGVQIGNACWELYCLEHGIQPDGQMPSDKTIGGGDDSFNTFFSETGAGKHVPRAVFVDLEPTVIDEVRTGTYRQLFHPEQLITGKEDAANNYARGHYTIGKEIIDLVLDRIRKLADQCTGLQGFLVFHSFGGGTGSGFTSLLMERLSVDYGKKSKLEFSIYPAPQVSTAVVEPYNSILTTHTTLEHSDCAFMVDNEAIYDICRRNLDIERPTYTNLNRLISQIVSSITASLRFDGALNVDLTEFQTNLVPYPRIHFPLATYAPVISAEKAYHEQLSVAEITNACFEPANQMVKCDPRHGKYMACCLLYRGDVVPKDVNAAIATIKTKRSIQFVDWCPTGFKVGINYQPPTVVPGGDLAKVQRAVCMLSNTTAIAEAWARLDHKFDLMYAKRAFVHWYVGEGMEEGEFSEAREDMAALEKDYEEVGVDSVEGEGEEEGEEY

On to `COc1ccc(S(=O)(=O)N(CC#N)c2cc(OC)c(Br)cc2OC)cc1` [Compound 25, N-(4-bromo-2,5-dimethoxyphenyl)-N-(cyanomethyl)-4-methoxybenzenesulphonamide], for which the “Effect on microtubule network” value in assay [1] and in assay [5] was “disrupted the microtubule network” in each case. For the same compound, the values for the Early apoptosis in the assay on HeLa cells [2] (87.5 nM) and in the assay with HeLa cells [2] (175 nM) were 52.3% and 47.5%, respectively. The Late apoptosis is 39.7% in the assay with HeLa cells [2] (87.5 nM) and 45.3% in the assay with HeLa cells [2] (175 nM). In addition, the entries for the “Live (AnV–/PI–)” value with HeLa cells [2] (87.5 nM) and with HeLa cells [2] (175 nM) were 6.5% and 4.1%, respectively. In addition, the figures for the Necrosis in the assay on HeLa cells [2] (87.5 nM) and in the assay with HeLa cells [2] (175 nM) were 1.5% and 3.1%, respectively. In addition, in the assay on HeLa cells [2] (87.5 and 175 nM), the Apoptotic profile is recorded as greater than 90%. In addition, the “TPI % 10 µM” value in assay [3] (10 µM compound, 1.5 mg/mL microtubular protein) is recorded as 51%. Further, in assay [3] (in vitro tubulin polymerisation inhibition, read-out: TPI IC50), the IC50 came out at 7.6 µM. The “Cells at G2/M phase” value in the assay on HeLa cells [4] (87.5 nM, 24 h) is reported as 82%; in the assay with HeLa cells [4] (87.5 nM, 48 h) it was 54%; in the assay with HeLa cells [4] (87.5 nM, 72 h), 41%; in the assay on HeLa cells [4] (175 nM, 24 h), 86%; in the assay with HeLa cells [4] (175 nM, 48 h), 48%; in the assay on HeLa cells [4] (175 nM, 72 h), 49%. Moreover, the subG0/G1 population in the assay with HeLa cells [4] (87.5 nM, 48 h) amounted to 34%; in the assay with HeLa cells [4] (175 nM, 48 h), 29%; with HeLa cells [4] (72 h, one value printed for 87.5 and 175 nM), 38%.

In general, IC50 refers to the point on the concentration scale where inhibition reaches its midpoint.
